Measured values from patent US20240368150A1 (Hoffmann-La Roche Inc., priority 2021, published 2024).
Like-named read-outs stand apart in the source and are kept apart here.

Columns and labels:
hDGKalpha(1-735)-N-His = hDGKalpha(1-735)-N-His (Homo sapiens (Human), UniProt P23743); test: DGKalpha ADP Glo assay (in vitro DGK inhibition); assay type: biochemical; details: DLG 125 uM, ATP 25 μM, DGK α 4 nM, 1 hour reaction
Outline: (§1)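 His-tagged human DGKα (4 nM) and DGKζ (2 nM) phosphorylate DLG presented in DLG/PS/PC liposomes using ATP; reaction run 1 hour. ADP formed measured by ADP-Glo luminescence. Compounds tested as 11-point 1:3 dose response […], 2% DMSO final.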

hDGKzeta(1-928)-N-His = hDGKzeta(1-928)-N-His (Homo sapiens (Human), UniProt Q13574); test: DGKzeta ADP Glo assay (in vitro DGK inhibition); assay type: biochemical; details: DLG 125 uM, ATP 50 μM, DGK ζ 2 nM, 1 hour reaction
Outline: as §1

primary human T-cells [1] = test: Proliferation assay after 5 days (CellTiter-Glo, CD3 stimulation; PBS counter screen); assay type: cell-based; details: CD3 stimulation; for Emax proliferation (% activation) / Emax: 5 days, normalized to reference compound A1 as stimulator control = 100%, DMSO neutral control; for EC50: primary human T-cells, CellTiter-Glo after 5 days, EC50 of fitted sigmoidal curve, read-out: Tcell Proliferation CD3 EC50; for Emax: read-out: Emax proliferation (% activation)
Outline: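 ATP-based luminescence (CellTiter-Glo 2.0, room temperature) measured proliferation 5 days after compound addition to CD3-stimulated or unstimulated primary human T-cells. Flags marked compounds that lowered viability or activated unstimulated cells.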

MV-3 cells = test: T-cell - TCB - MV3 killing assay (MCSP-TCB, RFP object count by Incucyte); assay type: cell-based, human; details: 5 d; for Emax: read-out: MSCP TCB killing MV-3 cells 5 d Emax; for EC50: primary human T-cells + MCSP-TCB, MV-3 RFP cells, read-out: MSCP TCB killing MV-3 cells 5 d EC50
primary human T-cells [2] = tested on: primary human T-cells
[3] = Homo sapiens, MV-3, 120 h, normalized: MCSP-TCB only = neutral control, 20 μM reference compound A1 = 100%

hDGKalpha(1-735)-N-His, sequence (P23743 whole entry): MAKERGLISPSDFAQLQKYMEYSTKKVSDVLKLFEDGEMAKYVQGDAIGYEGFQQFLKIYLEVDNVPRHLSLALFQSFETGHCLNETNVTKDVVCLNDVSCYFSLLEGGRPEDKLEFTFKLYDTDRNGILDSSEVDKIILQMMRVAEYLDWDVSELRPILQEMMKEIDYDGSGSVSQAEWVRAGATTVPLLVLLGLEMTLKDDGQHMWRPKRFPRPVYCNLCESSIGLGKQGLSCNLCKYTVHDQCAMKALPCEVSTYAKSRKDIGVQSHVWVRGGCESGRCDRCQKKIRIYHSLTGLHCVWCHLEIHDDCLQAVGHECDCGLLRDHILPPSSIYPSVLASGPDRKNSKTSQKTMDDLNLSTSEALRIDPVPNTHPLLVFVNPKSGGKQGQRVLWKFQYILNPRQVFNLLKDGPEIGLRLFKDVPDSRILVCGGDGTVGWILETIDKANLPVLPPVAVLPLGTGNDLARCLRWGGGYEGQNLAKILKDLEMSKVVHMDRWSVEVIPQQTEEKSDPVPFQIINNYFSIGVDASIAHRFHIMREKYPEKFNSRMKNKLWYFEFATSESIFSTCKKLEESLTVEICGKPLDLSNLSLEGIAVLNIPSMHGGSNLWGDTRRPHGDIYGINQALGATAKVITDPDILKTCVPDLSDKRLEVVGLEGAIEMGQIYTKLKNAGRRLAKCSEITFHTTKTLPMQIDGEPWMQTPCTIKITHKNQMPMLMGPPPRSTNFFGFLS
hDGKzeta(1-928)-N-His, sequence (Q13574 whole entry): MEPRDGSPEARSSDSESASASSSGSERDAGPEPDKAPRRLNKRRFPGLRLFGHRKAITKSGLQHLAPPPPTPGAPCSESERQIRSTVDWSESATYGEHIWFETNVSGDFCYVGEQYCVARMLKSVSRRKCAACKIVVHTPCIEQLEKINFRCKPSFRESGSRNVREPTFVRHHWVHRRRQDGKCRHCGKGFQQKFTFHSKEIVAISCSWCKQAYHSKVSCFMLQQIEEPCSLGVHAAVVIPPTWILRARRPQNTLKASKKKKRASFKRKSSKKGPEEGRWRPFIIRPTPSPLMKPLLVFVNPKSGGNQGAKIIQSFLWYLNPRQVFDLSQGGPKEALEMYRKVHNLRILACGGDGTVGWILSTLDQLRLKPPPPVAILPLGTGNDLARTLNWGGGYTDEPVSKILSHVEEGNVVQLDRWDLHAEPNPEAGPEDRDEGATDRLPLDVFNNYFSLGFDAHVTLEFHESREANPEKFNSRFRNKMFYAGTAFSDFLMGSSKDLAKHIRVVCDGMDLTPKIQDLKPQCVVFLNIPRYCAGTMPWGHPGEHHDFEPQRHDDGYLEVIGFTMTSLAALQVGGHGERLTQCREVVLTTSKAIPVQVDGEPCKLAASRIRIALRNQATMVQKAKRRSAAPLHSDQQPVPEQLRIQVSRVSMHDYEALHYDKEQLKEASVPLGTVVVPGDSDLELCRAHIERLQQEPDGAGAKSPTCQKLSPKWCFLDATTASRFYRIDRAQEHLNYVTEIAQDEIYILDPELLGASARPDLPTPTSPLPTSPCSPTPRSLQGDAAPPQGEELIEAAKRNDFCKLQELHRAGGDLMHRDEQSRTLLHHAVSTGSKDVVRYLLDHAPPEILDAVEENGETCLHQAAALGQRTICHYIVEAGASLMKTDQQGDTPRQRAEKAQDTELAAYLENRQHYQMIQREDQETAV

Compound | IC50 (hDGKalpha(1-735)-N-His) [µM] | IC50 (hDGKzeta(1-928)-N-His) [µM] | EC50 (primary human T-cells [2]) [µM] | Emax proliferation (% activation) (primary human T-cells [1]) | EC50 (primary human T-cells [1]) [µM] | Emax (MV-3 cells; [3]) [%] | EC50 (MV-3 cells; Homo sapiens, MV-3, 120 h) [µM] | EC50 (primary human T-cells [1]; Homo sapiens, T-cell, 120 h) [µM] | MSCP TCB killing MV-3 cells 5 d Emax (MV-3 cells; normalized: MCSP-TCB only = neutral control, 20 μM reference compound A1 = 100%) [%] | EC50 (MV-3 cells) [µM] | Emax (primary human T-cells [1]; Homo sapiens, T-cell, 120 h) [%]
N[C@H]1C[S+]([O-])c2cc(F)c(-c3noc(N4CCOC5CC54)n3)cc2N(Cc2ccc(Cl)cc2)C1=O (single isomer, unassigned; epimer a) [Example 207] | > 62.5 | 0.193 | 4.38 | 280 | 1.86 | 90 | 0.16 | – | – | – | –
CC(C)(C)n1nnc(-c2cc3c(cc2F)S(=O)(=O)C[C@H](NC(=O)CN)C(=O)N3Cc2ccc(Cl)cc2)n1 [Example 29, 2-amino-N-[(3R)-7-(2-tert-butyltetrazol-5-yl)-5-[(4-chlorophenyl)methyl]-8-fluoro-1,1,4-trioxo-2,3-dihydro-1lambda6,5-benzothiazepin-3-yl]acetamide] | > 62.5 | 33.1 | 0.855 | – | – | 95 | 0.037 | 0.0936 | – | – | 172
COC(=O)N1CC2CC(c3nnc(-c4cc5c(cc4F)S(=O)(=O)C[C@H](N)C(=O)N5Cc4ccc(Cl)cc4)o3)(C2)C1 [Example 184, methyl 1-[5-[(3R)-3-amino-5-[(4-chlorophenyl)methyl]-8-fluoro-1,1,4-trioxo-2,3-dihydro-1λ^6,5-benzothiazepin-7-yl]-1,3,4-oxadiazol-2-yl]-3-azabicyclo[3.1.1]heptane-3-carboxylate] | 0.244 | 0.29 | 0.109 | – | – | 79 | 0.09 | 0.0242 | – | – | 77
CC(C)(C)c1nnc(-c2cc3c(cc2F)S(=O)(=O)C[C@H](NC(=O)CN)C(=O)N3Cc2ccc(Cl)cc2)o1 [Example 266, 2-amino-N-[(3R)-7-(5-tert-butyl-1,3,4-oxadiazol-2-yl)-5-[(4-chlorophenyl)methyl]-8-fluoro-1,1,4-trioxo-2,3-dihydro-1λ^6,5-benzothiazepin-3-yl]acetamide] | 54.5 | 40.1 | 0.214 | – | – | 76 | 0.02 | 0.0775 | – | – | 137
N[C@H]1CS(=O)(=O)c2ccc(-c3nnc(C4(C5CC5)CCCO4)o3)cc2N(Cc2ccc(Cl)cc2)C1=O (stereo partly drawn) [Example 381, (3R)-3-amino-5-[(4-chlorophenyl)methyl]-7-[5-(2-cyclopropyltetrahydrofuran-2-yl)-1,3,4-oxadiazol-2-yl]-1,1-dioxo-2,3-dihydro-1λ^6,5-benzothiazepin-4-one] | 3.31 | 0.658 | 2.4 | – | – | 101 | 0.16 | 2.42 | – | – | 119
CN1CCCC(F)(c2nnc(-c3ccc4c(c3)N(Cc3ccc(Cl)cc3)C(=O)[C@@H](N)CS4(=O)=O)o2)C1 (stereo partly drawn) [Example 384, (3R)-3-amino-5-[(4-chlorophenyl)methyl]-7-[5-(3-fluoro-1-methyl-3-piperidyl)-1,3,4-oxadiazol-2-yl]-1,1-dioxo-2,3-dihydro-1λ^6,5-benzothiazepin-4-one] | 4.58 | 2.25 | 0.792 | – | – | 110 | 0.99 | 0.699 | – | – | 112
CC1(Nc2nnc(-c3ccc4c(c3)N(Cc3ccc(Cl)cc3)C(=O)[C@@H](N)CS4(=O)=O)o2)CC(F)(F)C1 [Example 406, (3R)-3-amino-5-[(4-chlorophenyl)methyl]-7-[5-[(3,3-difluoro-1-methyl-cyclobutyl)amino]-1,3,4-oxadiazol-2-yl]-1,1-dioxo-2,3-dihydro-1λ^6,5-benzothiazepin-4-one] | 5.02 | 14 | 2.51 | – | – | 85 | 1.54 | 1.86 | – | – | 79
N[C@H]1CS(=O)(=O)c2ccc(-c3nnc(N4CCOC(C(F)(F)F)C4)o3)cc2N(Cc2ccc(Cl)cc2)C1=O (stereo partly drawn) [Example 412, (3R)-3-amino-5-[(4-chlorophenyl)methyl]-1,1-dioxo-7-[5-[2-(trifluoromethyl)morpholin-4-yl]-1,3,4-oxadiazol-2-yl]-2,3-dihydro-1λ^6,5-benzothiazepin-4-one] | 2.69 | 0.484 | 2.36 | – | – | 92 | 0.14 | 0.176 | – | – | 126

The next lines start with results.

IC50 (hDGKalpha(1-735)-N-His) [µM] | IC50 (hDGKzeta(1-928)-N-His) [µM] | EC50 (primary human T-cells [2]) [µM] | Compound | Emax proliferation (% activation) (primary human T-cells [1]) | EC50 (primary human T-cells [1]) [µM] | Emax (MV-3 cells; [3]) [%] | EC50 (MV-3 cells; Homo sapiens, MV-3, 120 h) [µM] | EC50 (primary human T-cells [1]; Homo sapiens, T-cell, 120 h) [µM] | MSCP TCB killing MV-3 cells 5 d Emax (MV-3 cells; normalized: MCSP-TCB only = neutral control, 20 μM reference compound A1 = 100%) [%] | EC50 (MV-3 cells) [µM] | Emax (primary human T-cells [1]; Homo sapiens, T-cell, 120 h) [%]
0.34 | 0.4 | 0.121 | CC(C)(C)c1nnc(-c2cc3c(cc2F)[S+]([O-])C[C@H](N)C(=O)N3Cc2ccc(OC(F)(F)F)cc2)o1 (single isomer, unassigned; epimer a) [Example 452] | 165 | – | – | – | 0.468 | 81 | 0.23 | –
0.21 | 0.254 | 0.0367 | CC(C)(C)c1nnc(-c2cc3c(cc2F)S(=O)(=O)C[C@H](N)C(=O)N3Cc2ccc(OC(F)(F)F)cc2)o1 [Example 57, (3R)-3-Amino-7-(5-tert-butyl-1,3,4-oxadiazol-2-yl)-8-fluoro-1,1-dioxo-5-[[4-(trifluoromethoxy)phenyl]methyl]-2,3-dihydro-1λ^6,5-benzothiazepin-4-one] | – | – | 100 | 0.05 | 0.0327 | – | – | 231
0.452 | 0.622 | 0.149 | CC(C)(C)c1nnc(-c2cc3c(cc2F)[S+]([O-])C[C@H](N)C(=O)N3Cc2ccc(OC(F)(F)F)cc2)o1 (stereo partly drawn) [Example 62, (3R)-3-amino-7-(5-tert-butyl-1,3,4-oxadiazol-2-yl)-8-fluoro-1-oxo-5-[[14-(trifluoromethoxy)phenyl]methyl]-2,3-dihydro-1λ^4,5-benzothiazepin-4-one] | 88 | 0.721 | 81 | 0.26 | – | – | – | –
0.643 | 0.685 | 4.18 | CC(C)(CO)c1nnc(-c2cc3c(cc2F)S(=O)(=O)C[C@H](N)C(=O)N3Cc2ccc(Cl)cc2)o1 [Example 86, (3R)-3-amino-5-[(4-chlorophenyl)methyl]-8-fluoro-7-[5-(2-hydroxy-1,1-dimethyl-ethyl)-1,3,4-oxadiazol-2-yl]-1,1-dioxo-2,3-dihydro-1λ^6,5-benzothiazepin-4-one] | – | – | 100 | 0.52 | 0.777 | – | – | 95
0.301 | 0.251 | 1.07 | CC(C)(CO)c1nc(-c2cc3c(cc2F)S(=O)(=O)C[C@H](N)C(=O)N3Cc2ccc(Cl)cc2)no1 [Example 303, (3R)-3-amino-5-[(4-chlorophenyl)methyl]-8-fluoro-7-[5-(2-hydroxy-1,1-dimethyl-ethyl)-1,2,4-oxadiazol-3-yl]-1,1-dioxo-2,3-dihydro-1λ^6,5-benzothiazepin-4-one] | – | – | 92 | 0.4 | 0.605 | – | – | 140
0.857 | 0.176 | 0.0746 | CC(N)(c1nc(-c2cc3c(cc2F)S(=O)(=O)C[C@H](N)C(=O)N3Cc2ccc(OC(F)(F)F)cc2)no1)C(F)(F)F (stereo partly drawn) [Example 331, (3R)-3-amino-7-[5-(1-amino-2,2,2-trifluoro-1-methyl-ethyl)-1,2,4-oxadiazol-3-yl]-8-fluoro-1,1-dioxo-5-[[4-(trifluoromethoxy)phenyl]methyl]-2,3-dihydro-1λ^6,5-benzothiazepin-4-one] | – | – | 116 | 0.03 | 0.0584 | – | – | 126
0.876 | 0.933 | 0.525 | CC(C)(C)c1nnc(-c2ccc3c(c2)N(Cc2ccc(Cl)cc2)C(=O)[C@@H](N)CS3(=O)=O)o1 [Example 361] | – | – | 100 | 0.56 | 0.361 | – | – | 100
1.45 | 1.68 | 0.369 | N[C@H]1CS(=O)(=O)c2ccc(-c3nnc(CC(F)(F)F)o3)cc2N(Cc2ccc(OC(F)(F)F)cc2)C1=O [Example 416, (3R)-3-amino-1,1-dioxo-7-[5-(2,2,2-trifluoroethyl)-1,3,4-oxadiazol-2-yl]-5-[[4-(trifluoromethoxy)phenyl]methyl]-2,3-dihydro-1λ^6,5-benzothiazepin-4-one] | – | – | 95 | 0.53 | 0.402 | – | – | 58
